The supplement of paper PMC11061612

What was measured:
Experiment in all cases: combination Emax (second highest fraction inhibited in the dose matrix, 72 h); higher = more inhibition; extreme values may be limits of the assay
[1] = system: ASH-3 (Thyroid Gland Carcinoma)
Method in brief: (§1)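 After 24 hours at 37°C and 5% CO2 in 1536-well plates, cells in DMEM/F12 or RPMI plus 10% FBS received two-drug dose matrices for 72 hours. Viability came from CellTiter-Glo 2.0 luminescence and was scaled as inhibition, anchored at 0 by vehicle wells and at 1 by blank wells. Combination Emax is taken as the second-highest inhibition in the matrix, and Bliss excess as the observed combination effect less EA + EB − EA·EB, with EA and EB the single-agent effects.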

EW-18 (Ewing's Sarcoma) = system: EW-18 (Ewing's Sarcoma)
Method in brief: as §1

[2] = system: HC-1 (Other Blood Carcinomas)
Method in brief: as §1

A704 (Kidney Carcinoma) = system: A704 (Kidney Carcinoma)
Method in brief: as §1

[3] = system: NCI-H2405 (Lung Adenocarcinoma)
Method in brief: as §1

[4] = system: NCI-H1573 (Lung Adenocarcinoma)
Method in brief: as §1

EW-3 (Ewing's Sarcoma) = system: EW-3 (Ewing's Sarcoma)
Method in brief: as §1

[5] = system: JHH-7 (Hepatocellular Carcinoma)
Method in brief: as §1

[6] = system: PF-382 (T-Lymphoblastic Leukemia)
Method in brief: as §1

[7] = system: NCI-H322M (Lung Adenocarcinoma)
Method in brief: as §1

[8] = system: HSC-2 (Oral Cavity Carcinoma)
Method in brief: as §1

[9] = system: SNU-C1 (Colorectal Carcinoma)
Method in brief: as §1

[10] = system: EMC-BAC-2 (Non-Small Cell Lung Carcinoma)
Method in brief: as §1

[11] = system: VMRC-LCD (Lung Adenocarcinoma)
Method in brief: as §1

[12] = system: KYSE-150 (Esophageal Squamous Cell Carcinoma)
Method in brief: as §1

[13] = system: BV-173 (Chronic Myelogenous Leukemia)
Method in brief: as §1

NB7 (Neuroblastoma) = system: NB7 (Neuroblastoma)
Method in brief: as §1

[14] = system: DG-75 (Burkitt's Lymphoma)
Method in brief: as §1

[15] = system: PFSK-1 (Other Solid Carcinomas)
Method in brief: as §1

BT-20 (Breast Carcinoma) = system: BT-20 (Breast Carcinoma)
Method in brief: as §1

Structure (SMILES) | combination Emax [1] | combination Emax (EW-18 (Ewing's Sarcoma)) | combination Emax [2] | combination Emax (A704 (Kidney Carcinoma)) | combination Emax [3] | combination Emax [4] | combination Emax (EW-3 (Ewing's Sarcoma)) | combination Emax [5] | combination Emax [6] | combination Emax [7] | combination Emax [8] | combination Emax [9] | combination Emax [10] | combination Emax [11] | combination Emax [12] | combination Emax [13] | combination Emax (NB7 (Neuroblastoma)) | combination Emax [14] | combination Emax [15] | combination Emax (BT-20 (Breast Carcinoma))
CC(=O)c1c(C)c2cnc(Nc3ccc(N4CCNCC4)cn3)nc2n(C2CCCC2)c1=O [Palbociclib] + Cn1cnc2c(F)c(Nc3ccc(Br)cc3Cl)c(C(=O)NOCCO)cc21 [Selumetinib] (first compound max 10 µM, 7x7, partner max 10 µM) | 0.403 | 0.58 | 0.59 | 0.705 | 0.428 | 0.565 | 0.45 | 0.323 | 0.761 | 0.665 | 0.391 | 0.598 | 0.362 | 0.123 | 0.684 | 0.733 | 0.331 | 0.723 | 0.138 | 0.361
C[C@@H](c1ccc2nccn2c1)n1nnc2ncc(-c3cnn(C)c3)nc21 [Savolitinib] + CC1(C)CCC(CN2CCN(c3ccc(C(=O)NS(=O)(=O)c4ccc(NCC5CCOCC5)c([N+](=O)[O-])c4)c(Oc4cnc5[nH]ccc5c4)c3)CC2)=C(c2ccc(Cl)cc2)C1 [Venetoclax] (first compound max 1 µM, 7x7, partner max 1 µM) | 0.16 | 0.229 | 0.173 | 0.246 | 0.038 | 0.203 | 0.379 | 0.114 | 0.134 | 0.0582 | 0.186 | 0.133 | 0.0698 | 0.128 | 0.189 | 0.781 | 0.108 | 0.16 | 0.302 | 0.0828
Cc1c2c(nn1C)CSCc1cc(n(C)n1)CSc1cc(c3ccccc3c1)OCCCc1c(C(=O)O)n(C)c3c-2c(Cl)ccc13 [AZD5991] + CN(C)CCCOc1ccc(-c2ccc3ncc4c(c3c2)n(C2CCOCC2)c(=O)n4C)cn1 [AZD0156] (first compound max 1 µM, 7x7, partner max 1 µM) | 0.344 | 0.94 | 0.37 | 0.24 | 0.228 | 0.394 | 0.662 | 0.14 | 0.337 | 0.279 | 0.835 | 0.424 | 0.745 | 0.2 | 0.453 | 0.95 | 0.499 | 0.395 | 0.993 | 0.636
Cc1c2c(nn1C)CSCc1cc(n(C)n1)CSc1cc(c3ccccc3c1)OCCCc1c(C(=O)O)n(C)c3c-2c(Cl)ccc13 [AZD5991] + C=CCn1c(=O)c2cnc(Nc3ccc(N4CCN(C)CC4)cc3)nc2n1-c1cccc(C(C)(C)O)n1 [AZD1775] (first compound max 1 µM, partner max 1 µM) | 0.339 | 0.91 | 0.994 | 0.43 | 0.262 | 0.427 | 0.701 | 0.415 | 0.961 | 0.854 | 0.853 | 0.395 | 0.842 | 0.506 | 0.634 | 0.942 | 0.869 | 0.92 | 1 | 0.809
CN(CCO)CC[C@H](CSc1ccccc1)Nc1ccc(S(=O)(=O)NC(=O)c2ccc(N3CCC([C@@H](O)c4ccccc4-c4ccc(Cl)cc4)CC3)cc2)cc1S(=O)(=O)C(F)(F)F [AZD4320] + Cn1cnc2c(F)c(Nc3ccc(Br)cc3Cl)c(C(=O)NOCCO)cc21 [Selumetinib] (first compound max 1 µM, 7x7, partner max 3 µM) | 0.728 | 0.881 | 0.972 | 0.642 | 0.572 | 0.4 | 0.906 | 0.276 | 1 | 0.642 | 0.768 | 0.944 | 0.416 | 0.226 | 0.359 | 0.963 | 0.507 | 0.206 | 0.419 | 0.746
CC(=O)Nc1cccc(-n2c(=O)n(C3CC3)c(=O)c3c(Nc4ccc(I)cc4F)n(C)c(=O)c(C)c32)c1 [Trametinib] + Cc1nc(-c2cn3c(n2)-c2ccc(-c4cnn(C(C)(C)C(N)=O)c4)cc2OCC3)n(C(C)C)n1 [Taselisib] (first compound max 1 µM, 7x7, partner max 10 µM) | 0.962 | 0.637 | 0.665 | 0.892 | 0.665 | 0.89 | 0.364 | 0.429 | 0.905 | 0.887 | 1 | 0.79 | 0.945 | 0.212 | 0.886 | 0.854 | 0.577 | 0.307 | 0.604 | 1
CC1(C)CCC(CN2CCN(c3ccc(C(=O)NS(=O)(=O)c4ccc(NCC5CCOCC5)c([N+](=O)[O-])c4)c(Oc4cnc5[nH]ccc5c4)c3)CC2)=C(c2ccc(Cl)cc2)C1 [Venetoclax] + Cn1cnc2c(F)c(Nc3ccc(Br)cc3Cl)c(C(=O)NOCCO)cc21 [Selumetinib] (first compound max 1 µM, 7x7, partner max 3 µM) | 0.294 | 0.26 | 0.521 | 0.158 | 0.373 | 0.289 | 0.643 | 0.145 | 0.18 | 0.541 | 0.161 | 0.467 | 0.347 | 0.109 | 0.273 | 0.906 | 0.137 | 0.257 | 0.171 | 0.231
CC(=O)c1c(C)c2cnc(Nc3ccc(N4CCNCC4)cn3)nc2n(C2CCCC2)c1=O [Palbociclib] + CC1(C)CCC(CN2CCN(c3ccc(C(=O)NS(=O)(=O)c4ccc(NCC5CCOCC5)c([N+](=O)[O-])c4)c(Oc4cnc5[nH]ccc5c4)c3)CC2)=C(c2ccc(Cl)cc2)C1 [Venetoclax] (first compound max 10 µM, 7x7, partner max 1 µM) | 0.283 | 0.656 | 0.611 | 0.625 | 0.0998 | 0.284 | 0.599 | 0.132 | 0.633 | 0.492 | 0.245 | 0.194 | 0.243 | 0.0618 | 0.455 | 0.848 | 0.191 | 0.705 | 0.235 | 0.0933
COc1nnc2ccc(N3CCC(c4ccc(OCCN5CCN(C)C(=O)[C@H]5C)cc4)CC3)nn12 [AZD5153] + Cn1cnc2c(F)c(Nc3ccc(Br)cc3Cl)c(C(=O)NOCCO)cc21 [Selumetinib] (first compound max 1 µM, 7x7, partner max 10 µM) | 0.713 | 0.59 | 0.506 | 0.855 | 0.521 | 0.755 | 0.629 | 0.512 | 0.903 | 0.726 | 0.737 | 0.83 | 0.738 | 0.575 | 0.661 | 0.936 | 0.45 | 0.862 | 0.664 | 0.302
NC1(C(=O)N[C@@H](CCO)c2ccc(Cl)cc2)CCN(c2ncnc3[nH]ccc23)CC1 [Capivasertib] + CC(C)n1c(=O)n(C)c2cnc3cc(F)c(-c4ccc(OCCCN5CCCCC5)nc4)cc3c21 [AZD1390] (first compound max 10 µM, 7x7, partner max 0.3 µM) | 0.384 | 0.596 | 0.508 | 0.314 | 0.274 | 0.195 | 0.258 | 0.315 | 0.612 | 0.313 | 0.447 | 0.528 | 0.462 | 0.0998 | 0.375 | 0.51 | 0.736 | 0.38 | 0.462 | 0.733
NC1(C(=O)N[C@@H](CCO)c2ccc(Cl)cc2)CCN(c2ncnc3[nH]ccc23)CC1 [Capivasertib] + C[C@@H]1COCCN1C2=NC(=NC(=C2)C3(CC3)[S@](=N)(=O)C)C4=C5C=CNC5=NC=C4 [AZD6738] (first compound max 10 µM, 7x7, partner max 10 µM) | 0.697 | 0.811 | 0.749 | 0.524 | 0.477 | 0.618 | 0.87 | 0.39 | 0.974 | 0.81 | 0.701 | 0.533 | 0.728 | 0.566 | 0.681 | 0.956 | 0.635 | 0.845 | 0.699 | 0.771
Cc1c2c(nn1C)CSCc1cc(n(C)n1)CSc1cc(c3ccccc3c1)OCCCc1c(C(=O)O)n(C)c3c-2c(Cl)ccc13 [AZD5991] + CCN(CCO)CCCOc1ccc2c(Nc3cc(CC(=O)Nc4cccc(F)c4)[nH]n3)ncnc2c1 [AZD2811] (first compound max 1 µM, 7x7, partner max 1 µM) | 0.3 | 0.919 | 0.737 | 0.177 | 0.221 | 0.425 | 0.771 | 0.453 | 0.923 | 0.188 | 0.968 | 0.415 | 0.823 | 0.613 | 0.498 | 0.95 | 0.872 | 0.229 | 0.998 | 0.787
